Results published in US10807986B2, “Fused pyrimidine compound or salt thereof” (TAIHO PHARMACEUTICAL CO., LTD., priority 2016, dated 2020).

Test: Evaluation of stability in liver microsome
Settings: mouse liver microsome 0.25 mg/mL, test compound 1 μM, 37° C., 30 minutes

| Compound | Remaining (%) |
| --- | --- |
| COCc1ccc(NC(=O)c2c(C#Cc3cccs3)n(C3(C)CC3)c3ncnc(N)c23)cc1 [Example 119, 4-amino-N-(4-(methoxymethyl)phenyl)-7-(1-methylcyclopropyl)-6-(thiophen-2-ylethynyl)-7H-pyrrolo[2,3-d]pyrimidine-5-carboxamide] | 70 |
| COCc1ccc(NC(=O)c2c(Cl)n(C3(C)CC3)c3ncnc(N)c23)cc1 [Example 56, 4-amino-6-chloro-N-[4-(methoxymethyl)phenyl]-7-(1-methylcyclopropyl)-7H-pyrrolo[2,3-d]pyrimidine-5-carboxamide] | 62 |
| COCc1ccc(NC(=O)c2c(C#CCC3NC(=O)NC3=O)n(C3(C)CC3)c3ncnc(N)c23)cc1 (centres unmarked) [Example 156, 4-amino-6-(3-(2,5-dioxoimidazolidin-4-yl)prop-1-yn-1-yl)-N-(4-(methoxymethyl)phenyl)-7-(1-methylcyclopropyl)-7H-pyrrolo[2,3-d]pyrimidine-5-carboxamide] | 67 |
| COCc1ccc(NC(=O)c2c(C#Cc3ccccc3)n(C3(C)CC3)c3ncnc(N)c23)cc1 [Example 162, 4-amino-N-(4-(methoxymethyl)phenyl)-7-(1-methylcyclopropyl)-6-(phenylethynyl)-7H-pyrrolo[2,3-d]pyrimidine-5-carboxamide] | 76 |
| COCc1ccc(NC(=O)c2c(C#Cc3cnc[nH]3)n(C3(C)CC3)c3ncnc(N)c23)cc1 [Example 191, 6-((1H-imidazol-5-yl)ethynyl)-4-amino-N-(4-(methoxymethyl)phenyl)-7-(1-methylcyclopropyl)-7H-pyrrolo[2,3-d]pyrimidine-5-carboxamide] | 53 |
| COCc1ccc(NC(=O)c2c(-c3ccccc3)n(C3(C)CC3)c3ncnc(N)c23)cc1 [Example 154, 4-amino-N-(4-(methoxymethyl)phenyl)-7-(1-methylcyclopropyl)-6-phenyl-7H-pyrrolo[2,3-d]pyrimidine-5-carboxamide] | 50 |
| COCc1ccc(NC(=O)c2c(Br)n(C3(C)CC3)c3ncnc(N)c23)cc1 [Example 55, 4-amino-6-bromo-N-[4-(methoxymethyl)phenyl]-7-(1-methylcyclopropyl)-7H-pyrrolo[2,3-d]pyrimidine-5-carboxamide] | 56 |
| COCc1ccc(NC(=O)c2c(C#Cc3ccc(OC)nc3)n(C3(C)CC3)c3ncnc(N)c23)cc1 [Example 192, 4-amino-N-(4-(methoxymethyl)phenyl)-6-((6-methoxypyridin-3-yl)ethynyl)-7-(1-methylcyclopropyl)-7H-pyrrolo[2,3-d]pyrimidine-5-carboxamide] | 79 |
| COCc1ccc(NC(=O)c2c(C#CC3(O)CCOC3)n(C3(C)CC3)c3ncnc(N)c23)cc1 (centres unmarked) [Example 177, 4-amino-6-((3-hydroxytetrahydrofuran-3-yl)ethynyl)-N-(4-(methoxymethyl)phenyl)-7-(1-methylcyclopropyl)-7H-pyrrolo[2,3-d]pyrimidine-5-carboxamide] | 72 |
| COCc1ccc(NC(=O)c2c(C#CCN3CCN(C)CC3)n(C3(C)CC3)c3ncnc(N)c23)cc1 [Example 132, 4-amino-N-(4-(methoxymethyl)phenyl)-7-(1-methylcyclopropyl)-6-(3-(4-methylpiperazin-1-yl)prop-1-yn-1-yl)-7H-pyrrolo[2,3-d]pyrimidine-5-carboxamide] | 77 |
| COCc1ccc(NC(=O)c2c(C#CC3(O)CCOCC3)n(C3(C)CC3)c3ncnc(N)c23)cc1 [Example 185, 4-amino-6-((4-hydroxytetrahydro-2H-pyran4-yl)ethynyl)-N-(4-(methoxymethyl)phenyl)-7-(1-methylcyclopropyl)-7H-pyrrolo[2,3-d]pyrimidine-5-carboxamide] | 80 |
| COCc1ccc(NC(=O)c2c(C#Cc3ccc(Cl)nc3)n(C3(C)CC3)c3ncnc(N)c23)cc1 [Example 120, 4-amino-6-((6-chloropyridin-3-yl)ethynyl)-N-(4-(methoxymethyl)phenyl)-7-(1-methylcyclopropyl)-7H-pyrrolo[2,3-d]pyrimidine-5-carboxamide] | 72 |
| COCc1ccc(NC(=O)c2c(C#CC(O)C3CC3)n(C3(C)CC3)c3ncnc(N)c23)cc1 (centres unmarked) [Example 104, 4-amino-6-(3-cyclopropyl-3-hydroxyprop-1-yn-1-yl)-N-(4-(methoxymethyl)phenyl)-7-(1-methylcyclopropyl)-7H-pyrrolo[2,3-d]pyrimidine-5-carboxamide] | 52 |
| COCc1ccc(NC(=O)c2c(C#CCN3CCCC3)n(C3(C)CC3)c3ncnc(N)c23)cc1 [Example 88, 4-amino-N-[4-(methoxymethyl)phenyl]-7-(1-methylcyclopropyl)-6-(3-(pyrrolidin-1-yl)prop-1-yn-1-yl)-7H-pyrrolo[2,3-d]pyrimidine-5-carboxamide] | 59 |
| CCn1nccc1C#Cc1c(C(=O)Nc2ccc(COC)cc2)c2c(N)ncnc2n1C1(C)CC1 [Example 114, 4-amino-6-((1-ethyl-1H-pyrazol-5-yl)ethynyl)-N-(4-(methoxymethyl)phenyl)-7-(1-methylcyclopropyl)-7H-pyrrolo[2,3-d]pyrimidine-5-carboxamide] | 55 |
| COCc1ccc(NC(=O)c2c(C#Cc3ccsc3)n(C3(C)CC3)c3ncnc(N)c23)cc1 [Example 176, 4-amino-N-(4-(methoxymethyl)phenyl)-7-(1-methylcyclopropyl)-6-(thiophen-3-ylethynyl)-7H-pyrrolo[2,3-d]pyrimidine-5-carboxamide] | 70 |
| COCc1ccc(NC(=O)c2c(OCC3CCOC3)n(C3(C)CC3)c3ncnc(N)c23)cc1 (centres unmarked) [Example 101, 4-amino-N-(4-(methoxymethyl)phenyl)-7-(1-methylcyclopropyl)-6-((tetrahydrofuran-3-yl)methoxy)-7H-pyrrolo[2,3-d]pyrimidine-5-carboxamide] | 68 |
| COCc1ccc(NC(=O)c2c(C#Cc3cccnc3)n(C3(C)CC3)c3ncnc(N)c23)cc1 [Example 94, 4-amino-N-[4-(methoxymethyl)phenyl]-7-(1-methylcyclopropyl)-6-(pyridin-3-ylethynyl)-7H-pyrrolo[2,3-d]pyrimidine-5-carboxamide] | 60 |
| COCc1ccc(NC(=O)c2c(C(C)=O)n(C3(C)CC3)c3ncnc(N)c23)cc1 [Example 64, 6-acetyl-4-amino-N-(4-(methoxymethyl)phenyl)-7-(1-methylcyclopropyl)-7H-pyrrolo[2,3-d]pyrimidine-5-carboxamide] | 89 |
| COCc1ccc(NC(=O)c2c(C#CCC3(O)COC3)n(C3(C)CC3)c3ncnc(N)c23)cc1 [Example 125, 4-amino-6-(3-(3-hydroxyoxetan-3-yl)prop-1-yn-1-yl)-N-(4-(methoxymethyl)phenyl)-7-(1-methylcyclopropyl)-7H-pyrrolo[2,3-d]pyrimidine-5-carboxamide] | 74 |
| COCc1ccc(NC(=O)c2c(C#CCN3CCOCC3)n(C3(C)CC3)c3ncnc(N)c23)cc1F [Example 206, 4-amino-N-(3-fluoro-4-(methoxymethyl)phenyl)-7-(1-methylcyclopropyl)-6-(3-morpholinoprop-1-yn-1-yl)-7H-pyrrolo[2,3-d]pyrimidine-5-carboxamide] | 77 |
| COCc1ccc(NC(=O)c2c(C#CCC3(O)CCOCC3)n(C3(C)CC3)c3ncnc(N)c23)cc1 [Example 143, 4-amino-6-(3-(4-hydroxytetrahydro-2H-pyran-4-yl)prop-1-yn-1-yl)-N-(4-(methoxymethyl)phenyl)-7-(1-methylcyclopropyl)-7H-pyrrolo[2,3-d]pyrimidine-5-carboxamide] | 68 |
| CCOc1c(C(=O)Nc2ccc(-c3ccco3)cc2)c2c(N)ncnc2n1C1(C)CC1 [Example 116, 4-amino-6-ethoxy-N-(4-(furan-2-yl)phenyl)-7-(1-methylcyclopropyl)-7H-pyrrolo[2,3-d]pyrimidine-5-carboxamide] | 55 |
| COCc1ccc(NC(=O)c2c(C#CCN3CC[S+]([O-])CC3)n(C3(C)CC3)c3ncnc(N)c23)cc1 [Example 178, 4-amino-N-(4-(methoxymethyl)phenyl)-7-(1-methylcyclopropyl)-6-(3-(1-oxidethiomorpholino)prop-1-yn-1-yl)-7H-pyrrolo[2,3-d]pyrimidine-5-carboxamide] | 88 |
| COCc1ccc(NC(=O)c2c(OC[C@@H]3CCCO3)n(C3(C)CC3)c3ncnc(N)c23)cc1 [Example 97, (S)-4-amino-N-(4-(methoxymethyl)phenyl)-7-(1-methylcyclopropyl)-6-((tetrahydrofuran-2-yl)methoxy)-7H-pyrrolo[2,3-d]pyrimidine-5-carboxamide] | 70 |
| CCn1cc(C#Cc2c(C(=O)Nc3ccc(COC)cc3)c3c(N)ncnc3n2C2(C)CC2)cn1 [Example 118, 4-amino-6-((1-ethyl-1H-pyrazol-4-yl)ethynyl)-N-(4-(methoxymethyl)phenyl)-7-(1-methylcyclopropyl)-7H-pyrrolo[2,3-d]pyrimidine-5-carboxamide] | 73 |
| [2H]C([2H])([2H])OCc1ccc(NC(=O)c2cn(C(C)(C)C)c3ncnc(N)c23)cc1 [Example 35, 4-amino-7-(tert-butyl)-N-(4-((methoxy-d3)-methyl)phenyl)-7H-pyrrolo[2,3-d]pyrimidine-5-carboxamide] | 58 |
| COCc1ccc(NC(=O)c2c(C#Cc3cccc(F)c3)n(C3(C)CC3)c3ncnc(N)c23)cc1 [Example 130, 4-amino-6-((3-fluorophenyl)ethynyl)-N-(4-(methoxymethyl)phenyl)-7-(1-methylcyclopropyl)-7H-pyrrolo[2,3-d]pyrimidine-5-carboxamide] | 84 |
| COCc1ccc(NC(=O)c2cn(C(C)(C)CF)c3ncnc(N)c23)cc1F [Example 41, 4-amino-7-(1-fluoro-2-methylpropan-2-yl)-N-(3-fluoro-4-(methoxymethyl)phenyl)-7H-pyrrolo[2,3-d]pyrimidine-5-carboxamide] | 56 |
